In patent US8148391B2 (Cephalon, Inc., priority 2006, dated 2012):

Columns and labels:
[1] = target: T1, c-Met (cytoplasmic domain) (Homo sapiens, UniProt P08581); assay: c-Met Kinase Assay (same methods as for ALK, with modifications); assay type: biochemical; conditions: 1 μM ATP (Km level), 10 ng/mL c-Met; read-out: cMet Activity (c-Met kinase inhibition, IC50 class)
T1 construct: 10 ng/mL c-Met (cytoplasmic domain, Invitrogen Corporation #PV3143); purchased Invitrogen Corporation PV3143
Method in brief: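 Wells were coated with 10 μg/mL phospholipase C-γ substrate in TBS, and reactions were started with 10 ng/mL c-Met cytoplasmic domain and run at 37° C for 15 minutes. Phosphorylated product was detected with Eu-N1-labeled PT66 antibody. IC50 values came from sigmoidal variable-slope fits of percent inhibition versus log compound concentration.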

[2] = target: T2, baculovirus-expressed ALK (Homo sapiens, UniProt Q9UM73); assay: ALK Kinase Assay (ELISA-type, time-resolved fluorescence); assay type: biochemical; conditions: 1 μM ATP (Km level), 30 ng/ml ALK, 37° C., 15 minutes; read-out: ALK Activity (ALK kinase inhibition, IC50 class)
T2 construct: host or cells: baculovirus expression system
T2 sequence (Q9UM73 19-1620): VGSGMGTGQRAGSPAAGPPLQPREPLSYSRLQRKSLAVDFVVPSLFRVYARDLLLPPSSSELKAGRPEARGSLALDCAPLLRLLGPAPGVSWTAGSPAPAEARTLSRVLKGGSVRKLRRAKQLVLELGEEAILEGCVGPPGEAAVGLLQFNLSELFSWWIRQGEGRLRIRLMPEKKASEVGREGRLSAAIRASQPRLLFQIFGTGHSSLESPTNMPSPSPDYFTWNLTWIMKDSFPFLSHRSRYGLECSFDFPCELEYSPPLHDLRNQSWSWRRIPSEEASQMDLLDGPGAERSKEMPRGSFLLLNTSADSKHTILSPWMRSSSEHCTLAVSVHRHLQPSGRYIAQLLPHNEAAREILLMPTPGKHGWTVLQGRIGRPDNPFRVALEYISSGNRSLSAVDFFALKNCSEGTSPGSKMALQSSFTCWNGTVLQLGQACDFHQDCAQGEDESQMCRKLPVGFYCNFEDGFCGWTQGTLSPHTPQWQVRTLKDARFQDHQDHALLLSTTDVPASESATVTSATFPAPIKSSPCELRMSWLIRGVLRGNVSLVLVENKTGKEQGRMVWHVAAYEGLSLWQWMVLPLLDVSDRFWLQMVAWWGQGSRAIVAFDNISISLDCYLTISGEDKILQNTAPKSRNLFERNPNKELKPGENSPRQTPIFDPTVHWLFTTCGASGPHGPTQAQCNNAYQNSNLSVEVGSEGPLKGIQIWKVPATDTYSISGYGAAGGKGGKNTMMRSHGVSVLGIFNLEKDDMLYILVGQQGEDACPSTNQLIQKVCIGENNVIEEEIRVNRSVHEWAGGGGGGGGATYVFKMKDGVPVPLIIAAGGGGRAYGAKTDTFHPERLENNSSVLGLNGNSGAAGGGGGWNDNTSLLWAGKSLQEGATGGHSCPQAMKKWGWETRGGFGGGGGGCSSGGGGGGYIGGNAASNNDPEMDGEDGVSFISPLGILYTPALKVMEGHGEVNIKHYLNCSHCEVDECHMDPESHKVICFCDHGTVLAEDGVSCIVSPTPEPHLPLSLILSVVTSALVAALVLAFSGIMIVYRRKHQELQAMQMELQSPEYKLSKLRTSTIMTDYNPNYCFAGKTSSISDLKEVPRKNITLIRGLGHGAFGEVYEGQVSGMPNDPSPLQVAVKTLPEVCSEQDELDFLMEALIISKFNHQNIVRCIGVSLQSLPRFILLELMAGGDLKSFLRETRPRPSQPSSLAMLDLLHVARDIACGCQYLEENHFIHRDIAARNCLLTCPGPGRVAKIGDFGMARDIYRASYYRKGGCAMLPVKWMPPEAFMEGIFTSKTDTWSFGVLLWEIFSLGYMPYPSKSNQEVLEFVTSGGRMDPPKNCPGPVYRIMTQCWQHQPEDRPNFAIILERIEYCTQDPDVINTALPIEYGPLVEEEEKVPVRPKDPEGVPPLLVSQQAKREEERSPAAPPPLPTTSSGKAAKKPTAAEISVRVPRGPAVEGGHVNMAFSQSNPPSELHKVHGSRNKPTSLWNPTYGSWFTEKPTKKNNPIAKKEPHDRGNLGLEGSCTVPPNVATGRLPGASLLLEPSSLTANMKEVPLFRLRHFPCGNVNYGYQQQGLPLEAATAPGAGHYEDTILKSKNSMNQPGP
Method in brief: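 Substrate coating: phospholipase C-γ, 10 μg/mL in TBS. Kinase step: 30 ng/ml ALK, 15 min, 37° C. Detection and analysis: Eu-N1 PT66 antibody, with IC50 fitted as a sigmoidal variable-slope dose-response curve.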

T1 sequence (P08581 956-1390 limits assumed): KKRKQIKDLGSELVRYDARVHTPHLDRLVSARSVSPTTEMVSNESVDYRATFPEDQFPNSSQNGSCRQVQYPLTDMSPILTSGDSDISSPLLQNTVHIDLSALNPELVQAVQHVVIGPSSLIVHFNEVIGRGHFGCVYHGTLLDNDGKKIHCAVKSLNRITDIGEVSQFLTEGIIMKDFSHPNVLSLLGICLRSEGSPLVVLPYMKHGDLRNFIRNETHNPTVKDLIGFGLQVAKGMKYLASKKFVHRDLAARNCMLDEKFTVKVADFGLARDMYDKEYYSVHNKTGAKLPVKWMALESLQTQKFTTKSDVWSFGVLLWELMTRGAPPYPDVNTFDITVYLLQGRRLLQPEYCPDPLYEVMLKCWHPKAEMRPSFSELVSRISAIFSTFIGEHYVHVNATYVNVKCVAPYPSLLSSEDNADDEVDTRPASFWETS

SMILES	IC50 [1]	IC50 [2]
COc1cc2c(cc1Nc1ncc(Cl)c(Nc3ccccc3S(=O)(=O)N(C)C)n1)CCN(CC(=O)N1CCCC1)CC2 [Example 1157, 2-{5-Chloro-2-[8-methoxy-3-(2-oxo-2-pyrrolidin-1-yl-ethyl)-2,3,4,5-tetrahydro-1H-benzo[d]azepin-7-ylamino]-pyrimidin-4-ylamino}-N,N-dimethyl-benzenesulfonamide]	1000 to 10000 nM	< 100 nM
COc1cc2c(cc1Nc1ncc(Cl)c(Nc3ccccc3S(=O)(=O)C(C)C)n1)CCN(CC(=O)N1CCCC1)CC2 [Example 1158, 2-(7-{5-Chloro-4-[2-(propane-2-sulfonyl)-phenylamino]-pyrimidin-2-ylamino}-8-methoxy-1,2,4,5-tetrahydro-benzo[d]azepin-3-yl)-1-pyrrolidin-1-yl-ethanone]	1000 to 10000 nM	< 100 nM
COc1cc2c(cc1Nc1ncc(Cl)c(N[C@H]3[C@@H](C(N)=O)[C@@H]4C=C[C@H]3C4)n1)CCN(CC(=O)N1CCCC1)CC2 [Example 1159, (1S,2S,3R,4R)-3-{5-Chloro-2-[8-methoxy-3-(2-oxo-2-pyrrolidin-1-yl-ethyl)-2,3,4,5-tetrahydro-1H-benzo[d]azepin-7-ylamino]-pyrimidin-4-ylamino}-bicyclo[2.2.1]hept-5-ene-2-carboxylic acid amide]	> 10000 nM	< 100 nM
COc1cc2c(cc1Nc1ncc(Cl)c(N[C@@H]3CCCC[C@H]3NS(C)(=O)=O)n1)CCN(CC(=O)N1CCCC1)CC2 [Example 1160, N-((1R,2R)-2-{5-Chloro-2-[8-methoxy-3-(2-oxo-2-pyrrolidin-1-yl-ethyl)-2,3,4,5-tetrahydro-1H-benzo[d]azepin-7-ylamino]-pyrimidin-4-ylamino}-cyclohexyl)-methanesulfonamide]	> 10000 nM	< 100 nM
COc1cc2c(cc1Nc1ncc(Cl)c(Nc3ccc(C(N)=O)cc3OC)n1)CCN(CCS(C)(=O)=O)CC2 [Example 1161, 4-{5-Chloro-2-[3-(2-methanesulfonyl-ethyl)-8-methoxy-2,3,4,5-tetrahydro-1H-benzo[d]azepin-7-ylamino]-pyrimidin-4-ylamino}-3-methoxy-benzamide]	> 10000 nM	< 100 nM
COc1ccc(Nc2nc(Nc3cc4c(cc3OC)CCN(CC(=O)N(C)C)CC4)ncc2Cl)c(S(=O)(=O)C(C)C)c1 [Example 1162, 2-(7-{5-Chloro-4-[4-methoxy-2-(propane-2-sulfonyl)-phenylamino]-pyrimidin-2-ylamino}-8-methoxy-1,2,4,5-tetrahydro-benzo[d]azepin-3-yl)-N,N-dimethyl-acetamide]	> 10000 nM	< 100 nM
COc1cc2c(cc1Nc1ncc(Cl)c(Nc3ccccc3S(=O)(=O)C(C)C)n1)CCN(CCS(C)(=O)=O)CC2 [Example 1164, 5-Chloro-N*2*-[3-(2-methanesulfonyl-ethyl)-8-methoxy-2,3,4,5-tetrahydro-1H-benzo[d]azepin-7-yl]-N*4*-[2-(propane-2-sulfonyl)-phenyl]-pyrimidine-2,4-diamine]	1000 to 10000 nM	< 100 nM
COCCN1CCc2cc(Nc3ncc(Cl)c(Nc4ccccc4S(=O)(=O)N(C)C)n3)c(OC)cc2CC1 [Example 1165, 2-{5-Chloro-2-[8-methoxy-3-(2-methoxy-ethyl)-2,3,4,5-tetrahydro-1H-benzo[d]azepin-7-ylamino]-pyrimidin-4-ylamino}-N,N-dimethyl-benzenesulfonamide]	1000 to 10000 nM	< 100 nM
COc1cc2c(cc1Nc1ncc(Cl)c(Nc3ccc(N(C)C)cc3OC)n1)CCN(CC(=O)N(C)C)CC2 [Example 1166, 2-{7-[5-Chloro-4-(4-dimethylamino-2-methoxy-phenylamino)-pyrimidin-2-ylamino]-8-methoxy-1,2,4,5-tetrahydro-benzo[d]azepin-3-yl}-N,N-dimethyl-acetamide]	> 10000 nM	< 100 nM
COc1cc2c(cc1Nc1ncc(Cl)c(Nc3ccc(N(C)C)cc3OC)n1)CCN(CCS(C)(=O)=O)CC2 [Example 1167, 5-Chloro-N*4*-(4-dimethylamino-2-methoxy-phenyl)-N*2*-[3-(2-methanesulfonyl-ethyl)-8-methoxy-2,3,4,5-tetrahydro-1H-benzo[d]azepin-7-yl]-pyrimidine-2,4-diamine]	> 10000 nM	< 100 nM
COCCOc1ccc(Nc2nc(Nc3cc4c(cc3OC)CCN(CCS(C)(=O)=O)CC4)ncc2Cl)c(OC)c1 [Example 1168, 5-Chloro-N*2*-[3-(2-methanesulfonyl-ethyl)-8-methoxy-2,3,4,5-tetrahydro-1H-benzo[d]azepin-7-yl]-N*4*-[2-methoxy-4-(2-methoxy-ethoxy)-phenyl]-pyrimidine-2,4-diamine]	> 10000 nM	< 100 nM
COc1cc2c(cc1Nc1ncc(Cl)c(Nc3ccccc3S(=O)(=O)N(C)C)n1)CCN(Cc1ncco1)CC2 [Example 1170, 2-[5-Chloro-2-(8-methoxy-3-oxazol-2-ylmethyl-2,3,4,5-tetrahydro-1H-benzo[d]azepin-7-ylamino)-pyrimidin-4-ylamino]-N,N-dimethyl-benzenesulfonamide]	1000 to 10000 nM	< 100 nM
COc1cc2c(cc1Nc1ncc(Cl)c(Nc3ccccc3S(=O)(=O)N(C)C)n1)CCN(Cc1nccn1C)CC2 [Example 1171, 2-{5-Chloro-2-[8-methoxy-3-(1-methyl-1H-imidazol-2-ylmethyl)-2,3,4,5-tetrahydro-1H-benzo[d]azepin-7-ylamino]-pyrimidin-4-ylamino}-N,N-dimethyl-benzenesulfonamide]	1000 to 10000 nM	< 100 nM
COc1cc2c(cc1Nc1ncc(Cl)c(Nc3ccc(N(C)C)cc3OC)n1)CCN(Cc1ncco1)CC2 [Example 1172, 5-Chloro-N*4*-(4-dimethylamino-2-methoxy-phenyl)-N*2*-(8-methoxy-3-oxazol-2-ylmethyl-2,3,4,5-tetrahydro-1H-benzo[d]azepin-7-yl)-pyrimidine-2,4-diamine]	> 10000 nM	< 100 nM
COc1cc2c(cc1Nc1ncc(Cl)c(Nc3ccc(N(C)C)cc3OC)n1)CCN(Cc1nccn1C)CC2 [Example 1173, 5-Chloro-N*4*-(4-dimethylamino-2-methoxy-phenyl)-N*2*-[8-methoxy-3-(1-methyl-1H-imidazol-2-ylmethyl)-2,3,4,5-tetrahydro-1H-benzo[d]azepin-7-yl]-pyrimidine-2,4-diamine]	> 10000 nM	< 100 nM
COCCOc1ccc(Nc2nc(Nc3cc4c(cc3OC)CCN(Cc3ncco3)CC4)ncc2Cl)c(OC)c1 [Example 1174, 5-Chloro-N*4*-[2-methoxy-4-(2-methoxy-ethoxy)-phenyl]-N*2*-(8-methoxy-3-oxazol-2-ylmethyl-2,3,4,5-tetrahydro-1H-benzo[d]azepin-7-yl)-pyrimidine-2,4-diamine]	> 10000 nM	< 100 nM
COCCOc1ccc(Nc2nc(Nc3cc4c(cc3OC)CCN(Cc3nccn3C)CC4)ncc2Cl)c(OC)c1 [Example 1175, 5-Chloro-N*4*-[2-methoxy-4-(2-methoxy-ethoxy)-phenyl]-N*2*-[8-methoxy-3-(1-methyl-1H-imidazol-2-ylmethyl)-2,3,4,5-tetrahydro-1H-benzo[d]azepin-7-yl]-pyrimidine-2,4-diamine]	> 10000 nM	< 100 nM
